Data reported in US4552879A, “Benzoheterocyclic compounds and pharmaceutical composition thereof” (Otsuka Pharmaceutical Co., Ltd., priority 1980, dated 1985).
In brackets after ≈: the same amount, converted by molar mass. Like-named read-outs stand apart in the source and are kept apart here.

Assays:
Type in all cases: cell-based
Pseudomonas putida 12996 = experiment: Minimum inhibitory concentration, serial dilution method on agar plate; conditions: read-out: Minimum Inhibitory Concentration
[1] = test system: Micrococcus lysodeikticus IAM 1313; experiment: as above; conditions: Micrococcus luteus
[2] = test system: Staphylococcus aureus 7447; experiment: as above
[3] = test system: Streptococcus pyogenes IID S-23; experiment: as above; conditions: Streptococcus pyogenes, read-out: Minimum Inhibitory Concentration
[4] = test system: Staphylococcus aureus No. 286; experiment: as above
[5] = test system: Micrococcus luteus ATCC 4698; experiment: as above
[6] = test system: Staphylococcus aureus ATCC 12692; experiment: as above
Sarcina lutea PCI 1001 = experiment: as above
[7] = test system: Staphylococcus epidermidis ATCC 12228; experiment: as above
Proteus rettgeri NIH 96 = experiment: as above; conditions: Providencia rettgeri
[8] = test system: Staphylococcus epidermidis IFO 3762; experiment: as above
[9] = test system: Staphylococcus aureus B-5; experiment: as above
[10] = test system: Pseudomonas aeruginosa E-2; experiment: as above; conditions: Pseudomonas aeruginosa, read-out: Minimum Inhibitory Concentration
Klebsiella pneumoniae = experiment: as above; conditions: read-out: Minimum Inhibitory Concentration
[11] = test system: Staphylococcus aureus E-46; experiment: as above
[12] = test system: Serratia marcescens IFO 12648; experiment: as above; conditions: read-out: Minimum Inhibitory Concentration
[13] = test system: Peptococcus asaccharolyticus WAL 3218; experiment: as above; conditions: Peptoniphilus asaccharolyticus
[14] = test system: Staphylococcus aureus IFO 3060; experiment: as above
[15] = test system: Bacillus pumilus IFO 3813; experiment: as above
[16] = test system: Corynebacterium diphteriae; experiment: as above
[17] = test system: Staphylococcus aureus 50774; experiment: as above
[18] = test system: Salmonella typhi 0-901 (NCTC 8393); experiment: as above; conditions: Salmonella enterica
Bacillus anthracis = experiment: microbe, parasite or virus in culture
[19] = test system: Staphylococcus aureus FDA 209 P; experiment: Minimum inhibitory concentration, serial dilution method on agar plate; conditions: Staphylococcus aureus, read-out: Minimum Inhibitory Concentration
[20] = test system: Pseudomonas aeruginosa ATCC 10145; experiment: as above; conditions: Pseudomonas aeruginosa, read-out: Minimum Inhibitory Concentration
[21] = test system: Staphylococcus aureus B-70; experiment: as above
Shigella sonnei EW 33 = experiment: as above
Description: The antimicrobial activity of the following test compounds on various test organisms listed below was determined by the serial dilution method on agar plate (Heart Infusion agar produced by Difco Co.) (see CHEMOTHERAPY 22, pp. 1126-1128 (1974)), and the minimum inhibitory concentrations (mcg/ml) obtained are shown in Tables 1, 2 and 3 below.
A sample of each test organism was prepared so that the population of the organism was 1×10^8 cells/ml (O.D. 660 mμ=0.07 to 0.16) and 1×10^6 cells/ml (which was obtained by diluting 100 fold the above 1×10^8 cells/ml preparation).

Bacillus cereus IFO 3001 = experiment: as above
[22] = test system: Bacillus cereus ATCC 11778; experiment: as above
[23] = test system: Escherichia Coli NIHJ JC-2 (IFO 12734); experiment: as above; conditions: read-out: Minimum Inhibitory Concentration
[24] = test system: Staphylococcus aureus No. 80; experiment: as above

`CC1CCc2c(N3CCC(O)CC3)c(F)cc3c(=O)c(C(=O)O)cn1c23` (centres unmarked) [Compound 1, 9-Fluoro-8-(4-hydroxy-1-piperidyl)-5-methyl-6,7-dihydro-1-oxo-1H,5H-benzo[ij]quinolizine-2-carboxylic acid] was tested, and the MIC (Pseudomonas putida 12996; Pseudomonas putida, 12996, 1×10^6 cells/ml) was 6.25 µg/mL (≈ 17.3 µM), the MIC (Pseudomonas putida 12996; Pseudomonas putida, 12996, 1×10^8 cells/ml) was 6.25 µg/mL (≈ 17.3 µM) and the MIC ([1]; IAM1313, 1×10^6 cells/ml) was 0.1 µg/mL (≈ 0.277 µM). The MIC ([1]; IAM1313, 1×10^8 cells/ml) was 0.2 µg/mL (≈ 0.555 µM), the “Minimum Inhibitory Concentration” value ([2]; 1×10^6 cells/ml) was 0.05 µg/mL and the MIC ([2]; Staphylococcus aureus, 7447, 1×10^8 cells/ml) was 0.05 µg/mL (≈ 0.139 µM). For the same compound, the MIC ([3]; IIDS23, 1×10^6 cells/ml) was 0.39 µg/mL (≈ 1.08 µM), the MIC ([3]; IIDS23, 1×10^8 cells/ml) was 0.78 µg/mL (≈ 2.16 µM) and the MIC ([4]; NO.286, 1×10^6 cells/ml) was 0.05 µg/mL (≈ 0.139 µM). The MIC ([4]; NO.286, 1×10^8 cells/ml) was 0.1 µg/mL (≈ 0.277 µM), the MIC ([5]; ATCC4698, 1×10^6 cells/ml) was 0.1 µg/mL (≈ 0.277 µM) and the MIC ([5]; ATCC4698, 1×10^8 cells/ml) was 0.2 µg/mL (≈ 0.555 µM). For the same compound, the “Minimum Inhibitory Concentration” value ([6]; 1×10^6 cells/ml) was 0.05 µg/mL, the MIC ([6]; Staphylococcus aureus, ATCC12692, 1×10^8 cells/ml) was 0.05 µg/mL (≈ 0.139 µM) and the “Minimum Inhibitory Concentration” value (Sarcina lutea PCI 1001; 1×10^6 cells/ml) was 0.39 µg/mL. For the same compound, the MIC (Sarcina lutea PCI 1001; Micrococcus luteus, PCI1001, 1×10^8 cells/ml) was 0.39 µg/mL (≈ 1.08 µM), the “Minimum Inhibitory Concentration” value ([7]; 1×10^6 cells/ml) was 0.05 µg/mL and the MIC ([7]; Staphylococcus epidermidis, ATCC12228, 1×10^8 cells/ml) was 0.05 µg/mL (≈ 0.139 µM). The MIC (Proteus rettgeri NIH 96; NIH96, read-out: Minimum Inhibitory Concentration, 1×10^6 cells/ml) was 0.1 µg/mL (≈ 0.277 µM), the MIC (Proteus rettgeri NIH 96; NIH96, read-out: Minimum Inhibitory Concentration, 1×10^8 cells/ml) was 0.2 µg/mL (≈ 0.555 µM) and the MIC ([8]; IFO3762, 1×10^6 cells/ml) was 0.2 µg/mL (≈ 0.555 µM). The MIC ([8]; IFO3762, 1×10^8 cells/ml) was 0.39 µg/mL (≈ 1.08 µM), the “Minimum Inhibitory Concentration” value ([9]; 1×10^6 cells/ml) was 0.024 µg/mL and the MIC ([9]; Staphylococcus aureus, B5, 1×10^8 cells/ml) was 0.024 µg/mL (≈ 0.0666 µM). For the same compound, the MIC ([10]; E2, 1×10^6 cells/ml) was 6.25 µg/mL (≈ 17.3 µM), the MIC ([10]; E2, 1×10^8 cells/ml) was 6.25 µg/mL (≈ 17.3 µM) and the MIC (Klebsiella pneumoniae; 1×10^6 cells/ml) was 0.39 µg/mL (≈ 1.08 µM). For the same compound, the MIC (Klebsiella pneumoniae; 1×10^8 cells/ml) was 0.39 µg/mL (≈ 1.08 µM), the “Minimum Inhibitory Concentration” value ([11]; 1×10^6 cells/ml) was 0.05 µg/mL and the MIC ([11]; Staphylococcus aureus, E46, 1×10^8 cells/ml) was 0.05 µg/mL (≈ 0.139 µM). It also gave an MIC ([12]; IFO12648, 1×10^6 cells/ml) of 0.78 µg/mL (≈ 2.16 µM), an MIC ([12]; IFO12648, 1×10^8 cells/ml) of 1.56 µg/mL (≈ 4.33 µM) and an MIC ([13]; WAL3218, 1×10^6 cells/ml) of 0.78 µg/mL (≈ 2.16 µM). The MIC ([13]; WAL3218, 1×10^8 cells/ml) was 1.56 µg/mL (≈ 4.33 µM), the MIC ([14]; IFO3060, 1×10^6 cells/ml) was 0.05 µg/mL (≈ 0.139 µM) and the MIC ([14]; IFO3060, 1×10^8 cells/ml) was 0.1 µg/mL (≈ 0.277 µM). The “Minimum Inhibitory Concentration” value ([15]; 1×10^6 cells/ml) was 0.024 µg/mL, the MIC ([15]; Bacillus pumilus, IFO3813, 1×10^8 cells/ml) was 0.024 µg/mL (≈ 0.0666 µM) and the “Minimum Inhibitory Concentration” value ([16]; 1×10^6 cells/ml) was 0.05 µg/mL. The MIC ([16]; Corynebacterium, 1×10^8 cells/ml) was 0.05 µg/mL (≈ 0.139 µM), the “Minimum Inhibitory Concentration” value ([17]; 1×10^6 cells/ml) was 0.05 µg/mL and the MIC ([17]; Staphylococcus aureus, 50774, 1×10^8 cells/ml) was 0.05 µg/mL (≈ 0.139 µM). For the same compound, the MIC ([18]; read-out: Minimum Inhibitory Concentration, 1×10^6 cells/ml) was 0.05 µg/mL (≈ 0.139 µM), the MIC ([18]; read-out: Minimum Inhibitory Concentration, 1×10^8 cells/ml) was 0.1 µg/mL (≈ 0.277 µM) and the “Minimum Inhibitory Concentration” value (Bacillus anthracis; 1×10^6 cells/ml) was 0.05 µg/mL. The MIC (Bacillus anthracis; Bacillus anthracis, read-out: Minimum Inhibitory Concentration) was 0.05 µg/mL (≈ 0.139 µM), the MIC ([19]; FDA209, 1×10^6 cells/ml) was at most 0.025 µg/mL and the MIC ([19]; FDA209, 1×10^8 cells/ml) was at most 0.05 µg/mL. The MIC ([20]; ATCC10145, 1×10^6 cells/ml) was 3.13 µg/mL (≈ 8.69 µM), the MIC ([20]; ATCC10145, 1×10^8 cells/ml) was 3.13 µg/mL (≈ 8.69 µM) and the MIC ([21]; B70, 1×10^6 cells/ml) was 0.024 µg/mL (≈ 0.0666 µM). For the same compound, the MIC ([21]; B70, 1×10^8 cells/ml) was 0.05 µg/mL (≈ 0.139 µM), the MIC (Shigella sonnei EW 33; EW33, 1×10^6 cells/ml) was 0.2 µg/mL (≈ 0.555 µM) and the MIC (Shigella sonnei EW 33; EW33, 1×10^8 cells/ml) was 0.2 µg/mL (≈ 0.555 µM). The “Minimum Inhibitory Concentration” value (Bacillus cereus IFO 3001; 1×10^6 cells/ml) was 0.10 µg/mL, the MIC (Bacillus cereus IFO 3001; Bacillus cereus, IFO3001, 1×10^8 cells/ml) was 0.1 µg/mL (≈ 0.277 µM) and the “Minimum Inhibitory Concentration” value ([22]; 1×10^6 cells/ml) was 0.10 µg/mL. The MIC ([22]; Bacillus cereus, ATCC11778, 1×10^8 cells/ml) was 0.1 µg/mL (≈ 0.277 µM), the MIC ([23]; 1×10^6 cells/ml) was 0.39 µg/mL (≈ 1.08 µM) and the MIC ([23]; 1×10^8 cells/ml) was 0.39 µg/mL (≈ 1.08 µM). For the same compound, the MIC ([24]; NO.80, 1×10^6 cells/ml) was 0.024 µg/mL (≈ 0.0666 µM) and the MIC ([24]; NO.80, 1×10^8 cells/ml) was 0.05 µg/mL (≈ 0.139 µM).
